Experimental findings from patent US8703764B2, “Combination therapy for dementia, depression and apathy” (priority 2003, dated 2014) are described below.

Data set [1] concerns patient with depressed mood, lack of pleasure and absent initiative. The data set is described as follows: Case report Example 6: depressed mood, lack of pleasure and absent initiative in a retired nurse. Type of data set: in vivo, human. On the procedure: A 75 year retired nurse lived independently in the community until 2 months prior to admission.
Moclobemide was commenced at 200 mg. daily on day 4, increased to 300 mg. daily and day 6 and continued at 300 mg. daily.
Risperidone was commenced at 0.5 mg daily on day 7, discontinued on day 14 then restarted at 0.5 mg daily alternating with 0.25 mg. daily and continued as such.

Data set [2] deals with patient with early onset Alzheimer's disease. The data set is described as follows: Case report Example 4: patient with early onset Alzheimer's disease, anxiety and depressed mood. Conditions: for adverse effect leading to discontinuation: human, in vivo.
Data set [3] deals with apathy in a patient with Parkinson's disease. The experiment in a line: Case report Example 5: severe apathy in a patient with Parkinson's disease. In kind it is in vivo, human. Particulars: before admission to hospital. The source says: A person retired sailor developed Parkinson's disease more than 5 years before admission to hospital. After the onset of Parkinson's disease they developed decreased motivation and decreased interest. The severity of the apathy progressed to a near total lack of initiative. A trial of methylphenidate for apathy was unsuccessful. They were admitted to hospital with anxiety, severe apathy and constipation. They were unable to function at home leading to caregiver burn out.
Core symptoms of delirium were absent. A shuffling gait devoid of heel strike or toe push was observed. Arm swing was decreased. This person described decreased motivation in face of clear enjoyment of family visits and the sunshine outside. Their capacity for projective pleasure was preserved. They were satisfied with their accomplishments over their life. They felt their quality of life was reduced by their lack initiative. Objective mood and affect were flat. Thought form was marked by latency but progressed logically to a goal oriented conclusion. Thought content was free of delusions or hallucinations. Language was mildly impaired with paraphasic errors noted. Remote memories were difficult to recall and approximately correct. Their sense of humor and capacity for abstraction were preserved.
This was judged consistent with Parkinson's disease by the registered psychologist.
They could walk four lengths of the hallway. […]

Consider `O=C(NCCN1CCOCC1)c1ccc(Cl)cc1` [moclobemide, p-chloro-N-(2-morpholinoethyl) benzamide], for which the “late afternoon quality of mood and mobility of affect” value in data set [1] (by Day 6, moclobemide 200 mg daily from day 4, 300 mg daily from day 6, before risperidone) is “improved”.

As to `COc1ccc(C(CN(C)C)C2(O)CCCCC2)cc1` (stereo not drawn) [venlafaxine], the “adverse effect leading to discontinuation” value in data set [2] is recorded as “excessive sweating”. Besides, the depressed mood entry in data set [2] (venlafaxine 150 mg daily, donepezil 10 mg daily commenced) is “responded”.

With `COC(=O)C(c1ccccc1)C1CCCCN1` (stereo not drawn) [methylphenidate], the trial for apathy result in data set [3] is “unsuccessful”.

On to `Cc1nc2n(c(=O)c1CCN1CCC(c3noc4cc(F)ccc34)CC1)CCCC2` [risperidone, 3-[2-[4-(6-fluoro-1,2-benzisoxazol-3-yl)piperidino]ethyl]-2-methyl-6,7,8,9-tetrahydro-4H-pyrido-[1,2-a]pyrimidin-4-one], for which, in data set [1] (shortly after Day 13, risperidone 0.5 mg daily), the extrapyramidal side effects result is on record as “mild extrapyramidal symptoms emerged”. Besides, the “adverse effect leading to discontinuation” value in data set [2] is on record as “emergence of dystonia”.
